According to ChEMBL document CHEMBL1122946, “Folate antagonists. 21. Synthesis and antimalarial properties of 2,4-diamino-6-(benzylamino)pyrido[3,2-d]pyrimidines” (1985):

How the values were obtained:
[1] = system: Mus musculus; experiment: Mean survival time against trophozoite induced Plasmodium berghei in mice minus control was evaluated at a dose 160 mg/kg; 5 survived out of 5 animals at 60 days postinjection.; assay type: functional, organism-based; parameters: dose 160 mg/kg
[2] = system: Mus musculus; experiment: Mean survival time against trophozoite induced Plasmodium berghei in mice minus control was evaluated at a dose 40 mg/kg.; assay type: functional
[3] = system: Mus musculus; experiment: Mean survival time against trophozoite induced Plasmodium berghei in mice minus control was evaluated at a dose 80 mg/kg; assay type: functional
[4] = system: Mus musculus; experiment: Mean survival time against trophozoite induced Plasmodium berghei in mice minus control was evaluated at a dose 320 mg/kg; 10 survived out of 10 animals at 60 days postinjection.; assay type: functional, organism-based; parameters: dose 320 mg/kg
[5] = system: Mus musculus; experiment: Mean survival time against trophozoite induced Plasmodium berghei in mice minus control was evaluated at a dose 20 mg/kg.; assay type: functional
[6] = system: Mus musculus; experiment: Mean survival time against trophozoite induced Plasmodium berghei in mice minus control was evaluated at a dose 160 mg/kg; 5 survived occurred on days 2-5 after injection; assay type: functional, organism-based; parameters: dose 160 mg/kg
[7] = system: Mus musculus; experiment: Mean survival time against trophozoite induced Plasmodium berghei in mice minus control was evaluated at a dose 40 mg/kg; 1 survived occurred on days 2-5 after injection; assay type: functional
[8] = system: Mus musculus; experiment: Mean survival time against trophozoite induced Plasmodium berghei in mice minus control was evaluated at a dose 10 mg/kg.; assay type: functional
[9] = system: Mus musculus; experiment: Mean survival time against trophozoite induced Plasmodium berghei in mice minus control was evaluated at a dose 80 mg/kg; 2 survived occurred on days 2-5 after injection.; assay type: functional
[10] = system: Mus musculus; experiment: Mean survival time against trophozoite induced Plasmodium berghei in mice minus control was evaluated at a dose 320 mg/kg; 2 toxic death and 3 survived occurred on days 2-5 after injection; assay type: functional, organism-based; parameters: dose 320 mg/kg
[11] = system: Mus musculus; experiment: Mean survival time against trophozoite induced Plasmodium berghei in mice minus control was evaluated at a dose 640 mg/kg; 5 toxic death occurred on days 2-5 after injection; assay type: functional, organism-based; parameters: dose 640 mg/kg
[12] = system: Mus musculus; experiment: Mean survival time against trophozoite induced Plasmodium berghei in mice minus control was evaluated at a dose 80 mg/kg; 2 survived occurred on days 2-5 after injection; assay type: functional, organism-based; parameters: dose 80 mg/kg
[13] = system: Mus musculus; experiment: Mean survival time against trophozoite induced Plasmodium berghei in mice minus control was evaluated at a dose 160 mg/kg; 5 cured at 60 days postinjection.; assay type: functional, organism-based; parameters: dose 160 mg/kg
[14] = system: Mus musculus; experiment: Mean survival time against trophozoite induced Plasmodium berghei in mice minus control was evaluated at a dose 320 mg/kg; 2 cured and 3 toxic death; assay type: functional, organism-based; parameters: dose 320 mg/kg
[15] = system: Mus musculus; experiment: Mean survival time against trophozoite induced Plasmodium berghei in mice minus control was evaluated at a dose 80 mg/kg; 3 cured at 60 days postinjection.; assay type: functional, organism-based; parameters: dose 80 mg/kg
[16] = system: Mus musculus; experiment: Mean survival time against trophozoite induced Plasmodium berghei in mice minus control was evaluated at a dose 2.5 mg/kg.; assay type: functional
[17] = system: Mus musculus; experiment: Mean survival time against trophozoite induced Plasmodium berghei in mice minus control was evaluated at a dose 1.25 mg/kg.; assay type: functional
[18] = system: Mus musculus; experiment: Mean survival time against trophozoite induced Plasmodium berghei in mice minus control was evaluated at a dose 5 mg/kg.; assay type: functional
[19] = system: Mus musculus; experiment: Mean survival time against trophozoite induced Plasmodium berghei in mice minus control was evaluated at a dose 640 mg/kg; 1 cured and 2 toxic death; assay type: functional, organism-based; parameters: dose 640 mg/kg
[20] = system: Mus musculus; experiment: Mean survival time against trophozoite induced Plasmodium berghei in mice minus control was evaluated at a dose 40 mg/kg; 1 cured at 60 days postinjection.; assay type: functional, organism-based; parameters: dose 40 mg/kg
[21] = system: Mus musculus; experiment: Mean survival time against trophozoite induced Plasmodium berghei in mice minus control was evaluated at a dose 640 mg/kg.; assay type: functional
[22] = system: Mus musculus; experiment: Mean survival time against trophozoite induced Plasmodium berghei in mice minus control was evaluated at a dose 160 mg/kg.; assay type: functional
[23] = system: Mus musculus; experiment: Mean survival time against trophozoite induced Plasmodium berghei in mice minus control was evaluated at a dose 640 mg/kg; 5 survived out of 5 animals at 60 days postinjection.; assay type: functional, organism-based; parameters: dose 640 mg/kg
[24] = system: Mus musculus; experiment: Mean survival time against trophozoite induced Plasmodium berghei in mice minus control was evaluated at a dose 40 mg/kg; 4 survived out of 10 animals at 60 days postinjection.; assay type: functional, organism-based; parameters: dose 40 mg/kg
[25] = system: Mus musculus; experiment: Mean survival time against trophozoite induced Plasmodium berghei in mice minus control was evaluated at a dose 160 mg/kg; 10 survived out of 10 animals at 60 days postinjection.; assay type: functional, organism-based; parameters: dose 160 mg/kg
[26] = system: Mus musculus; experiment: Mean survival time against trophozoite induced Plasmodium berghei in mice minus control was evaluated at a dose 80 mg/kg; 10 survived out of 10 animals at 60 days postinjection.; assay type: functional, organism-based; parameters: dose 80 mg/kg
[27] = system: Mus musculus; experiment: Mean survival time against trophozoite induced Plasmodium berghei in mice minus control was evaluated at a dose 40 mg/kg; 15 survived out of 15 animals at 60 days postinjection.; assay type: functional, organism-based; parameters: dose 40 mg/kg
[28] = system: Mus musculus; experiment: Mean survival time against trophozoite induced Plasmodium berghei in mice minus control was evaluated at a dose 20 mg/kg; 8 survived out of 15 animals at 60 days postinjection.; assay type: functional, organism-based; parameters: dose 20 mg/kg
[29] = system: Mus musculus; experiment: Mean survival time against trophozoite induced Plasmodium berghei in mice minus control was evaluated at a dose 320 mg/kg.; assay type: functional
[30] = system: Mus musculus; experiment: Mean survival time against trophozoite induced Plasmodium berghei in mice minus control was evaluated at a dose 640 mg/kg; 7 survived out of 10 animals at 60 days postinjection.; assay type: functional, organism-based; parameters: dose 640 mg/kg
[31] = system: Mus musculus; experiment: Mean survival time against trophozoite induced Plasmodium berghei in mice minus control was evaluated at a dose 80 mg/kg.; assay type: functional
[32] = system: Mus musculus; experiment: Mean survival time against trophozoite induced Plasmodium berghei in mice minus control was evaluated at a dose 320 mg/kg; 3 survived out of 5 animals at 60 days postinjection; assay type: functional, organism-based; parameters: dose 320 mg/kg
[33] = system: Mus musculus; experiment: Mean survival time against trophozoite induced Plasmodium berghei in mice minus control was evaluated at a dose 160 mg/kg; 6 survived out of 15 animals at 60 days postinjection; assay type: functional, organism-based; parameters: dose 160 mg/kg
[34] = system: Mus musculus; experiment: Mean survival time against trophozoite induced Plasmodium berghei in mice minus control was evaluated at a dose 640 mg/kg; 9 survived out of 15 animals at 60 days postinjection.; assay type: functional, organism-based; parameters: dose 640 mg/kg
[35] = system: Mus musculus; experiment: Mean survival time against trophozoite induced Plasmodium berghei in mice minus control was evaluated at a dose 80 mg/kg; 1 survived out of 5 animals at 60 days postinjection; assay type: functional, organism-based; parameters: dose 80 mg/kg

SMILES: Nc1nc(N)c2nc(N3CCCCC3Cc3ccccc3)ccc2n1 (configuration not stated)
- Delta MST [1]: Survivals 5/5
- Delta MST [2]: 4.9 days
- Delta MST [3]: 8.2 days
- Delta MST [4]: Survivals 10/10
- Delta MST [5]: 3 days

SMILES: CC1(C)N=C(N)N=C(N)N1c1ccc(Cl)cc1.Cl [CHLORCYCLOGUANIL HYDROCHLORIDE]
- Delta MST [6]: Survivals 5
- Delta MST [7]: 13.4 days
- Delta MST [8]: 4.9 days
- Delta MST [9]: 21.6 days
- Delta MST [10]: Survivals 3 Toxic Deaths 2
- Delta MST [5]: 7.9 days
- Delta MST [11]: Toxic Deaths 5
- Delta MST [12]: Survivals 2

SMILES: CCc1nc(N)nc(N)c1-c1ccc(Cl)cc1 [PYRIMETHAMINE]
- Delta MST [13]: Survivals 5
- Delta MST [14]: Survivals 2 Toxic deaths 3
- Delta MST [15]: Survivals 3
- Delta MST [16]: 4.7 days
- Delta MST [8]: 6.1 days
- Delta MST [17]: 3.1 days
- Delta MST [18]: 5.3 days
- Delta MST [19]: Survivals 1 Toxic Deaths 2
- Delta MST [20]: Survivals 1
- Delta MST [5]: 7.7 days

SMILES: CCN(Cc1ccc(Cl)cc1)c1ccc2nc(N)nc(N)c2n1
- Delta MST [2]: 0.9 days
- Delta MST [21]: 1.1 days
- Delta MST [22]: 0.9 days

SMILES: Nc1nc(N)c2cc(N(C=O)Cc3ccc(Cl)c(Cl)c3)ccc2n1
- Delta MST [23]: Survivals 5/5
- Delta MST [8]: 4.3 days
- Delta MST [24]: Survivals 4/10
- Delta MST [4]: Survivals 10/10
- Delta MST [5]: 8.2 days
- Delta MST [25]: Survivals 10/10
- Delta MST [26]: Survivals 10/10

SMILES: CN(Cc1ccc(Cl)c(Cl)c1)c1ccc2nc(N)nc(N)c2c1
- Delta MST [23]: Survivals 5/5
- Delta MST [8]: 8.7 days
- Delta MST [27]: Survivals 15/15
- Delta MST [4]: Survivals 10/10
- Delta MST [28]: Survivals 8/15
- Delta MST [25]: Survivals 10/10
- Delta MST [26]: Survivals 10/10

SMILES: Nc1nc(N)c2nc(NCc3ccc(Cl)c(Cl)c3)ccc2n1
- Delta MST [2]: 1.8 days
- Delta MST [29]: 15.3 days
- Delta MST [30]: Survivals 7/10
- Delta MST [5]: 0.5 days
- Delta MST [22]: 12.4 days
- Delta MST [31]: 4.9 days

SMILES: CN(Cc1cccc(Br)c1)c1ccc2nc(N)nc(N)c2n1
- Delta MST [2]: 9.8 days
- Delta MST [32]: Survivals 3/5
- Delta MST [33]: Survivals 6/15
- Delta MST [34]: Survivals 9/15
- Delta MST [5]: 9.1 days
- Delta MST [35]: Survivals 1/5
